Usually IC50 stands for the concentration that inhibits the measured activity by half. A word on the Km: it is the concentration of substrate that gives half-maximal velocity. The Vmax is the rate approached at saturating substrate. A word on the kcat: it is the maximal rate divided by the concentration of active sites. A word on the kcat/Km: it is the turnover number divided by the Michaelis constant.

Where “and” joins values, the source holds several entries; their conditions need not be identical. Equal entries are not always repeated. Marks after values point to notes of the source that are not given here.

Series [1] has as its system RgNanH. Kind of series: Specificity of RgNanH against sialylated oligosaccharides (HPAEC-PAD). Type of series: biochemical, Ruminococcus gnavus ATCC 29149. More on the design: key to Activity, RgNanH: +: Activity was defined as disappearance of the substrate peak and appearance of a lower molecular weight peak which could correspond to the desialylated substrate. Conditions: for Activity, RgNanH: 1 mM substrate, 1 nM enzyme, 37° C., pH 6.5, overnight.

Series [2] relates to AkmNan0625 and AkmNan1835. Briefly: Specificity of AkmNan0625 and AkmNan1835 against sialylated oligosaccharides (HPAEC-PAD). Format: biochemical, Akkermansia muciniphila. To be noted: for Activity, AkmNan0625 and AkmNan1835: 1 mM substrate, 1 nM enzyme, 37° C., pH 6.5, overnight. More on the design: key to Activity, AkmNan0625 and AkmNan1835: +: Activity was defined as disappearance of the substrate peak and appearance of a lower molecular weight peak which could correspond to the desialylated substrate. The text has this:
All chemicals were obtained from Sigma (St. Louis, US) unless otherwise stated. The Akkermansia muciniphila sialidases, termed here AkmNan0625 and AkmNan1835, were obtained by His-Tag overexpression of their genes (Amuc_0625 and Amuc_1835, respectively (van Passel, M. W. et al. The genome of Akkermansia muciniphila, a dedicated intestinal mucin degrader, and its use in exploring intestinal metagenomes. Plos One 6, e16876 (2011)) in E. coli BL21(DE3) and subsequent purification to homogeneity by immobilised metal affinity chromatography (IMAC) as described below. The sialylated oligosaccharides and OC were obtained from Carbosynth (Berks, UK).

The target in series [3] is T1, RgNanH (Mediterraneibacter gnavus, UniProt A7B557).
T1 sequence (A7B557 26-723): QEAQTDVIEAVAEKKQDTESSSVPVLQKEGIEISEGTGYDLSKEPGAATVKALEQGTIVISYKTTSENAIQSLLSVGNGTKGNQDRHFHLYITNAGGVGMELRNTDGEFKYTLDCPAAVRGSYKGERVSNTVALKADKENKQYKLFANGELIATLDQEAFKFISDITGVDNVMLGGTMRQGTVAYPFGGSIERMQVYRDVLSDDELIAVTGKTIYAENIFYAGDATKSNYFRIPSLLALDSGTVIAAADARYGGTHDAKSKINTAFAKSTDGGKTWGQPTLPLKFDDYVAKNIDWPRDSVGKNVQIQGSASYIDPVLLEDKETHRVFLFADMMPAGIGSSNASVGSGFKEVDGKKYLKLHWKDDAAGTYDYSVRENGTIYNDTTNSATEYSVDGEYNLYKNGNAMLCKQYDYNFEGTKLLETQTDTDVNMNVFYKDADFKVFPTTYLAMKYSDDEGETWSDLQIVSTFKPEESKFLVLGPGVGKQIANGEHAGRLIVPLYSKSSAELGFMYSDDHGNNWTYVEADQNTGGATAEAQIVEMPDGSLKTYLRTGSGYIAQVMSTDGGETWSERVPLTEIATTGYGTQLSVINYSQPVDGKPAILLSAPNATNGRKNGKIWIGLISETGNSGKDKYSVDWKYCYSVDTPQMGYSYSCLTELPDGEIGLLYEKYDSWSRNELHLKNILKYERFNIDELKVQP
To be noted: 1 mg/ml glycoprotein, 37° C., pH 6.5, overnight.

Series [4] has as its target T1, RgNanH. Briefly: Inhibition of RgNanH activity against 4MU-Neu5Ac by neuraminidase inhibitors. Conditions: for Inhibition of RgNanH (in words): 4MU-Neu5Ac 0.51 mM, 1 nM enzyme, Neu5Ac 0-0.3 mM, Lac 0-1.5 mM.
For series [5], the system named is RgNanH. Kind of series: Kinetic analysis of RgNanH with sialylated substrates. Conditions: 37° C., pH 6.5; for Ki: read-out: Ki (substrate inhibition).
In series [6] the target is T2, Ruminococcus gnavus ATCC 29149 sialidase RgNanH (intramolecular trans-sialidase, IT-sialidase), wild type, full length excluding signal sequence residues 1-25, (Mediterraneibacter gnavus, UniProt A7B557).
T2 sequence (A7B557 26-723): T1 sequence (A7B557 26-723)
Conditions: 37° C., pH 6.5.

Substrate in series [7]: CC(=O)N[C@H]1[C@H]([C@H](O)[C@H](O)CO)O[C@@](Oc2ccc3c(C)cc(=O)oc3c2)(C(=O)O)C[C@@H]1O
Kind of series: purified protein, by the assay type. Conditions: other: 37° C., pH 6.5, * estimated value, ± standard error of the mean.

Setting [8] is: * estimated value, ± standard error of the mean.

Regarding `CC(=O)N[C@H]1[C@H]([C@H](O)[C@H](O)CO)O[C@@](O[C@H]2[C@@H](O)[C@@H](CO)O[C@@H](O[C@H]3[C@H](O[C@@H]4O[C@@H](C)[C@@H](O)[C@@H](O)[C@@H]4O)[C@@H](NC(C)=O)C(O)O[C@@H]3CO)[C@@H]2O)(C(=O)O)C[C@@H]1O` (stereo partly drawn) [3′-sialyl Lewis X, Neu5Ac-α-2-3-Gal-β-1-4-[Fuc-a1-3]-GlcNAc], the “Activity, RgNanH” value in series [1] is “+”. Also, the “Activity, AkmNan0625 and AkmNan1835” value in series [2] is “+”.

“Neu5Ac-α-2-6-Gal-β-1-4-GlcNAc [6′-α-sialyl-N-acetyllactosamine]”: the “Activity, AkmNan0625 and AkmNan1835” value in series [2] was “+”.

With “Neu5Ac-α-2-3-Gal-β-1-4-GlcNAc [3′-α-sialyl-N-acetyllactosamine]”, in series [1], the “Activity, RgNanH” value is “+”. In series [2], the “Activity, AkmNan0625 and AkmNan1835” value is recorded as “+”.

With asialo-fetuin, in series [3], the “Activity of RgNanH against glycoprotein (2,7-anhydro-Neu5Ac peaks by 1H NMR)” value is recorded as “no change”.

On to `CC(=O)N[C@H]1[C@H]([C@H](O)[C@H](O)CO)OC(C(=O)O)=C[C@@H]1N=C(N)N` [Zanamivir, 4-guanidino-Neu5Ac2en], for which the IC50 in series [4] (substrate 4MU-Neu5Ac) was 11.9 mM.

`CC(=O)N[C@H]1[C@H]([C@H](O)[C@H](O)CO)O[C@@](O[C@H]2[C@@H](O)[C@@H](CO)O[C@@H](O[C@H]3[C@H](O[C@@H]4O[C@@H](C)[C@@H](O)[C@@H](O)[C@@H]4O)[C@@H](O)C(O)O[C@@H]3CO)[C@@H]2O)(C(=O)O)C[C@@H]1O` (stereo partly drawn) [3′ sialyl-3-fucosyllactose, Neu5Ac-α-2-3-Gal-β1-4-[Fuc-α-1-3]-Glc]: in series [1], the “Activity, RgNanH” value is recorded as “+”. In series [2], the “Activity, AkmNan0625 and AkmNan1835” value is “+”.

As for `CC(=O)N[C@H]1[C@H]([C@H](O)[C@H](O)CO)O[C@@](O[C@H]2[C@@H](O)[C@@H](CO)O[C@@H](O[C@H]3[C@H](O)[C@@H](O)C(O)O[C@@H]3CO)[C@@H]2O)(C(=O)O)C[C@@H]1O` (stereo partly drawn) [3′SL, Neu5Ac-α-2-3-Gal-β-1-4-Glc], the “Activity, RgNanH” value in series [1] is reported as “+”. Besides, in series [2], the “Activity of AkmNan0625 and AkmNan1835 on substrate (in words)” value is “active”; the “Activity, AkmNan0625 and AkmNan1835” value is “+”. Besides, in series [5], the KM entry was “below detection limit”; the Km was less than 100 µM; the Vmax amounted to 0.0566 ± 0.0057 µM/min; the turnover number (kcat) is 25.7 min⁻¹ and 25.70 min⁻¹. Also, the Ki in series [5] was found to be 0.76 mM. In addition, in series [6] (setting [8]), the KM result is given as “below detection limit” and the Km was less than 100 µM. Also, the kcat/KM in series [6] (** calculated using estimated value) was >>2.57 × 10^2** min^−1 · mM^−1.

As to `CC(=O)N[C@H]1[C@H]([C@H](O)[C@H](O)CO)OC(O)(C(=O)O)C[C@@H]1O` (some centres unmarked) [Neu5Ac, N-Acetylneuraminic acid], the “Inhibition of RgNanH (in words)” value in series [4] was “not inhibited”.

Regarding `CC(=O)NC1C(O)CC(Oc2ccc([N+](=O)[O-])cc2)(C(=O)O)OC1C(O)C(O)CO` [PNP-Neu5Ac, 2-O-(p-Nitrophenyl)-α-D-N-acetylneuraminic acid], in series [5], the KM entry is recorded as “high”, the Km is greater than 25000 µM and the kcat was <152** min^−1.

As to `OC[C@H]1O[C@@H](O[C@H]2[C@H](O)[C@@H](O)C(O)O[C@@H]2CO)[C@H](O)[C@@H](O)[C@H]1O` (some centres unmarked) [Lactose], in series [4], the “Inhibition of RgNanH (in words)” value is “not inhibited”.

On to `CC(=O)N[C@H]1[C@H]([C@H](O)[C@H](O)CO)O[C@@](Oc2ccc3c(C)cc(=O)oc3c2)(C(=O)O)C[C@@H]1O` [4MU-Neu5Ac, 2′-(4-Methylumbelliferyl)-α-D-N-acetylneuraminic acid], for which, in series [5], the Km amounted to 590 µM, the kcat amounted to 6210 min⁻¹ and the Ki came to 2.37 mM.

`CC(=O)N[C@H]1[C@H]([C@H](O)[C@H](O)CO)OC(OC[C@H]2OC(O)[C@H](O)[C@@H](O)[C@H]2O)(C(=O)O)C[C@@H]1O` (stereo partly drawn) [6′ sialylgalactose, Neu5Ac-α-2-6-Gal]: the “Activity, AkmNan0625 and AkmNan1835” value in series [2] is recorded as “+”.

As to `CC(=O)N[C@H]1[C@H]([C@H](O)[C@H](O)CO)O[C@@](Oc2ccc([N+](=O)[O-])cc2)(C(=O)O)C[C@@H]1O` [PNP-Neu5Ac, 2-O-(p-Nitrophenyl)-α-D-N-acetylneuraminic acid], the KM entry in series [6] (setting [8]) was “high KM”.

Regarding `CC(=O)NC1C(O)C=C(C(=O)O)OC1C(O)C(O)CO` [Neu5Ac2en, 2-deoxy-2,3-didehydro-D-N-acetylneuraminic acid], the IC50 in series [4] (IC50, Table 2, substrate 4MU-Neu5Ac 0.51 mM, RgNanH 1.00 nM) was 1.41 mM; in series [4] (IC50, substrate 4MU-Neu5Ac) it was 1.4 mM.

Molecule `CC(=O)N[C@H]1NC[C@H](C(=O)O)[C@H](O)[C@@H]1O` [Siastatin B] had an IC50 in series [4] (Table 2, substrate 4MU-Neu5Ac 0.51 mM, RgNanH 1.00 nM) of 0.00487 mM.

For the molecule Neu5Ac-α-2-6-Gal-β1-4-Glc [6′SL], the “Enzymatic activity of RgNanH on substrate (in words)” value in series [1] is on record as “no enzymatic activity”. Also, in series [2], the “Activity of AkmNan0625 and AkmNan1835 on substrate (in words)” value is “active”; the “Activity, AkmNan0625 and AkmNan1835” value is listed as “+”.

Take `CC(=O)NC1C(O)CC(OC2C(O)C(O)OC(CO)C2O)(C(=O)O)OC1C(O)C(O)CO` (stereo not drawn) [3′ sialylgalactose, Neu5Ac-α-2-3-Gal]: in series [1], the “Activity, RgNanH” value is listed as “+”. In series [2], the “Activity, AkmNan0625 and AkmNan1835” value is listed as “+”.

On to `CO[C@@H]1O[C@H](CO)[C@@H](O[C@@H]2O[C@H](CO)[C@H](O)[C@H](O[C@]3(C(=O)O)C[C@H](O)[C@@H](NC(C)=O)[C@H]([C@H](O)[C@H](O)CO)O3)[C@H]2O)[C@H](O[C@@H]2O[C@@H](C)[C@@H](O)[C@@H](O)[C@@H]2O)[C@H]1NC(C)=O` [3′ sialyl Lewis X methyl glycoside, Neu5Ac-α-2-3-Gal-β-1-4-[Fuc-a-1-3]-GlcNAc-β-OMe], for which the “Activity, RgNanH” value in series [1] was “+”. Further, the “Activity, AkmNan0625 and AkmNan1835” value in series [2] is on record as “+”.

B1: Ruminococcus gnavus ATCC 29149 sialidase RgNanH (intramolecular trans-sialidase, IT-sialidase), wild type, full length excluding signal sequence residues 1-25, … (protein)
chain: T1 sequence (A7B557 26-723)
For B1, in series [7], the Km was 0.59 ± 0.17 mM, the Vmax is 1.37 µM/min, the kcat was 104 s⁻¹ and the kcat/Km is 175000 M⁻¹ s⁻¹.

(Values after patent US20190037899A1, “Intramolecular Trans-Sialidase” (THE INSTITUTE OF FOOD RESEARCH, priority 2016, published 2019).)
